In ChEMBL document CHEMBL5696442, “Discovery of type II inhibitors of TGFβ-activated kinase 1 (TAK1) and mitogen-activated protein kinase kinase kinase kinase 2 (MAP4K2)” (J Med Chem, 2015) one finds inhibition data, which are given here for three molecules.

A word on the inhibition: it is the change of the read-out against control, counted positive when it falls.

Experiment [1] deals with Tyrosine-protein kinase receptor TYRO3 (Homo sapiens) (UniProt Q06418). The experiment is described as follows: Inhibition of TYRO3 (unknown origin) at 1 uM by Ambit Kinomescan binding assay relative to control.
For experiment [2], the target named is Tyrosine-protein kinase receptor UFO (Homo sapiens) (UniProt P30530). Nature of the experiment: Inhibition of AXL ACT labeling site in human A-375 cells at 5 uM by KiNativ Profiling analysis relative to control. It is filed as cell-based.
Experiment [3] addresses SRSF protein kinase 2 (Homo sapiens) (UniProt P78362). The experiment is described as follows: Inhibition of SRPK2 (unknown origin) at 1 uM by Ambit Kinomescan binding assay relative to control.
Experiment [4] deals with RPS6KA1/RPS6KA2/RPS6KA3 (Homo sapiens) (UniProt P51812+Q15349+Q15418). The experiment is described as follows: Inhibition of RSK1/2/3 Domain 1 K2 labeling site harbouring DLKPENILLDEEGHIK in human Huh-7 cells at 10 uM by KiNativ Profiling analysis relative to control. Format: cell-based.
The target in experiment [5] is Ribosomal protein S6 kinase alpha-1 (Homo sapiens) (UniProt Q15418). Nature of the experiment: Inhibition of C-terminal RPS6KA1 kinase domain 2 (unknown origin) at 10 uM by Ambit Kinomescan binding assay.
For experiment [6], the target named is T1, Serine/threonine-protein kinase TAO2 (Homo sapiens) (UniProt Q9UL54).
T1 sequence (whole entry): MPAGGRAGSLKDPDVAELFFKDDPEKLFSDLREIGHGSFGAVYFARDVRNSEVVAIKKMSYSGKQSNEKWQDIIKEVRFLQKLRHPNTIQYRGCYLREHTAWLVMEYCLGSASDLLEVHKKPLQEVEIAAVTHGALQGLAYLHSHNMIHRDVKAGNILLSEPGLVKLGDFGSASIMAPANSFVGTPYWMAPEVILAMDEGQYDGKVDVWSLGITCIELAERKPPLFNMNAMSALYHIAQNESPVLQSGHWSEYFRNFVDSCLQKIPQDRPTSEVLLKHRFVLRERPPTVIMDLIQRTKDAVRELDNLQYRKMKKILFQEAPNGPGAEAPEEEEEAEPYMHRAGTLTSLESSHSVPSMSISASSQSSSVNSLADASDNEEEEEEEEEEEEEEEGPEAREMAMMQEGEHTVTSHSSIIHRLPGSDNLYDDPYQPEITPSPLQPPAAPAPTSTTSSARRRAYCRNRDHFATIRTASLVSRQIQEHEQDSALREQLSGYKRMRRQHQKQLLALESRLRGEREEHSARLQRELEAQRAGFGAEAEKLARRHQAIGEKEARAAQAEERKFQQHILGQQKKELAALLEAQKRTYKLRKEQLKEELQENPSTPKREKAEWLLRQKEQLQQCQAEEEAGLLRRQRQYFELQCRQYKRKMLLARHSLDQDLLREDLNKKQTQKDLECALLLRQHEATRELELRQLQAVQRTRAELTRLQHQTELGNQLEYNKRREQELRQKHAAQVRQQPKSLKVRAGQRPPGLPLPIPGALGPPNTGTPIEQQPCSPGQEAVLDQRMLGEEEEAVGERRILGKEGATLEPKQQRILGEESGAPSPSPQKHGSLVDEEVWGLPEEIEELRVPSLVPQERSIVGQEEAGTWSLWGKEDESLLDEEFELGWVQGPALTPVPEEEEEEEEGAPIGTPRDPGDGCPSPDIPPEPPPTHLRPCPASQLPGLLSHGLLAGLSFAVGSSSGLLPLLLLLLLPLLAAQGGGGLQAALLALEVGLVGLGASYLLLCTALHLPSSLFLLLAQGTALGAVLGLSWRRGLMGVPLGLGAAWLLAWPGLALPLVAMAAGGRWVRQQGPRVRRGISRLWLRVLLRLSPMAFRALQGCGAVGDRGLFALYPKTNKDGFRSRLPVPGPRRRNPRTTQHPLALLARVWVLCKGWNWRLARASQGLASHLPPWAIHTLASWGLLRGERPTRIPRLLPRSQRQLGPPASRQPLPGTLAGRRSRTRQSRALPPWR
The experiment is described as follows: Inhibition of TAO2 K2 labeling site in human Huh-7 cells at 1 uM by KiNativ Profiling analysis relative to control. Format: cell-based.

In experiment [7] the target is Cyclin-dependent kinase 1 (Homo sapiens) (UniProt P06493). Nature of the experiment: Inhibition of CDC2 K2 labeling site harbouring DLKPQNLLIDDKGTIK in human Huh-7 cells at 10 uM by KiNativ Profiling analysis relative to control. It is filed as cell-based.
The target of experiment [8] is T2, Serine/threonine-protein kinase D1 (Homo sapiens) (UniProt Q15139).
T2 sequence (whole entry): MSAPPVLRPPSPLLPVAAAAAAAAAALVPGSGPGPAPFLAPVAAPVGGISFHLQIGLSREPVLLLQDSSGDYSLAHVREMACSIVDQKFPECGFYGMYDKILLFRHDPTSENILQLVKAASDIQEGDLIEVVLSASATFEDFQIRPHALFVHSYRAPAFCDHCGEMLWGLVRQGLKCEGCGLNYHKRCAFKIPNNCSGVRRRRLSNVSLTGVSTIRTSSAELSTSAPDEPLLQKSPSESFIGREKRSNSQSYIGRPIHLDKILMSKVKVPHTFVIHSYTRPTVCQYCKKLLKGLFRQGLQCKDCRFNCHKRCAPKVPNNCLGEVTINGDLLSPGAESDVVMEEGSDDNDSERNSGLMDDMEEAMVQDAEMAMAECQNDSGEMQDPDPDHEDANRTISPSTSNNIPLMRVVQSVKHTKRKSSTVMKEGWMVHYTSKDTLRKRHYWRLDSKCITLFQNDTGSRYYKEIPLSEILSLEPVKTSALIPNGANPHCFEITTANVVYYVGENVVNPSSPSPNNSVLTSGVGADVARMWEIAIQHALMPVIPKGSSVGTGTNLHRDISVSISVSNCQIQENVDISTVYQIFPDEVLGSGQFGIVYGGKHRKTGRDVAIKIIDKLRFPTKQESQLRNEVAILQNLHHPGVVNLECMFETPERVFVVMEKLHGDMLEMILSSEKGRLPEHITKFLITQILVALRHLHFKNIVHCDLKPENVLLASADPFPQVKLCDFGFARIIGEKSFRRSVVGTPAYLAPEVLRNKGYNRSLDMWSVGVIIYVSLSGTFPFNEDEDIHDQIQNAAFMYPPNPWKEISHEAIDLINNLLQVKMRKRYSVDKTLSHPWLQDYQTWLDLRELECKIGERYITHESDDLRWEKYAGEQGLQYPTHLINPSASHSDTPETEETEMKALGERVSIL
The experiment is described as follows: Inhibition of PKD1 Lys2 labeling site in human Huh-7 cells at 1 uM by KiNativ Profiling analysis relative to control. Format: cell-based.

Experiment [9] addresses Serine/threonine-protein kinase 38-like (Homo sapiens) (UniProt Q9Y2H1). The experiment is described as follows: Inhibition of NDR2 ACT labeling site in human Huh-7 cell lysate at 1 uM by KiNativ Profiling analysis relative to control. Format: subcellular.
The target of experiment [10] is Serine/threonine-protein kinase WNK3 (Homo sapiens) (UniProt Q9BYP7). The experiment is described as follows: Inhibition of Wnk3 Lys2 labeling site in human Huh-7 cell lysate at 1 uM by KiNativ Profiling analysis relative to control. Format: subcellular.

Each structure is given as a SMILES string. Activity calls are given as the source filed them. No cut-off for these calls is given here.

Sequence of Tyrosine-protein kinase receptor TYRO3 (Homo sapiens) (Q06418 whole entry): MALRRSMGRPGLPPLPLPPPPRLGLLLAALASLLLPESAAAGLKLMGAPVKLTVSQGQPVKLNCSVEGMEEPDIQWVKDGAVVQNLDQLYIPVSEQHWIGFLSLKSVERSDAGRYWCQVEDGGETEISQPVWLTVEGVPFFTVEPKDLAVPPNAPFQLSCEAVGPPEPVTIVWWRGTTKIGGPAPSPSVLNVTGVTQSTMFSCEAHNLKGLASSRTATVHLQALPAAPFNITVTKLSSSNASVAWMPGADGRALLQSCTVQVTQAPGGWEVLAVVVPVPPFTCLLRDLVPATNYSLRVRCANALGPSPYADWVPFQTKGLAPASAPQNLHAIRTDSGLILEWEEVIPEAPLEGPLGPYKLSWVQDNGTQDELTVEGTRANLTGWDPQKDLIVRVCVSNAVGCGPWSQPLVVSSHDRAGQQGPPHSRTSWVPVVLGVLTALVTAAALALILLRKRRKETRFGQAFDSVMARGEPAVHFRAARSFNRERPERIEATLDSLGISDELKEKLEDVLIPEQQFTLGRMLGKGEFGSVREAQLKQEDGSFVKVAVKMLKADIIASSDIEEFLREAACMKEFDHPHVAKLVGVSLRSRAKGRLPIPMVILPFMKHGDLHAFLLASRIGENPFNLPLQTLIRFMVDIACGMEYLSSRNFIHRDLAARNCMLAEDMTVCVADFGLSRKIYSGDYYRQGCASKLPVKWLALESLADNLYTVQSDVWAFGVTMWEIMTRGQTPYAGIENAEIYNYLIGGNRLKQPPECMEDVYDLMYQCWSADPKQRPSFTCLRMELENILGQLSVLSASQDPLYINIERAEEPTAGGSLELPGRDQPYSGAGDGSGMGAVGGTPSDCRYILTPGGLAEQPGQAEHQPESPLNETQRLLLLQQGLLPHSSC
Sequence of Serine/threonine-protein kinase WNK3 (Homo sapiens) (Q9BYP7 whole entry): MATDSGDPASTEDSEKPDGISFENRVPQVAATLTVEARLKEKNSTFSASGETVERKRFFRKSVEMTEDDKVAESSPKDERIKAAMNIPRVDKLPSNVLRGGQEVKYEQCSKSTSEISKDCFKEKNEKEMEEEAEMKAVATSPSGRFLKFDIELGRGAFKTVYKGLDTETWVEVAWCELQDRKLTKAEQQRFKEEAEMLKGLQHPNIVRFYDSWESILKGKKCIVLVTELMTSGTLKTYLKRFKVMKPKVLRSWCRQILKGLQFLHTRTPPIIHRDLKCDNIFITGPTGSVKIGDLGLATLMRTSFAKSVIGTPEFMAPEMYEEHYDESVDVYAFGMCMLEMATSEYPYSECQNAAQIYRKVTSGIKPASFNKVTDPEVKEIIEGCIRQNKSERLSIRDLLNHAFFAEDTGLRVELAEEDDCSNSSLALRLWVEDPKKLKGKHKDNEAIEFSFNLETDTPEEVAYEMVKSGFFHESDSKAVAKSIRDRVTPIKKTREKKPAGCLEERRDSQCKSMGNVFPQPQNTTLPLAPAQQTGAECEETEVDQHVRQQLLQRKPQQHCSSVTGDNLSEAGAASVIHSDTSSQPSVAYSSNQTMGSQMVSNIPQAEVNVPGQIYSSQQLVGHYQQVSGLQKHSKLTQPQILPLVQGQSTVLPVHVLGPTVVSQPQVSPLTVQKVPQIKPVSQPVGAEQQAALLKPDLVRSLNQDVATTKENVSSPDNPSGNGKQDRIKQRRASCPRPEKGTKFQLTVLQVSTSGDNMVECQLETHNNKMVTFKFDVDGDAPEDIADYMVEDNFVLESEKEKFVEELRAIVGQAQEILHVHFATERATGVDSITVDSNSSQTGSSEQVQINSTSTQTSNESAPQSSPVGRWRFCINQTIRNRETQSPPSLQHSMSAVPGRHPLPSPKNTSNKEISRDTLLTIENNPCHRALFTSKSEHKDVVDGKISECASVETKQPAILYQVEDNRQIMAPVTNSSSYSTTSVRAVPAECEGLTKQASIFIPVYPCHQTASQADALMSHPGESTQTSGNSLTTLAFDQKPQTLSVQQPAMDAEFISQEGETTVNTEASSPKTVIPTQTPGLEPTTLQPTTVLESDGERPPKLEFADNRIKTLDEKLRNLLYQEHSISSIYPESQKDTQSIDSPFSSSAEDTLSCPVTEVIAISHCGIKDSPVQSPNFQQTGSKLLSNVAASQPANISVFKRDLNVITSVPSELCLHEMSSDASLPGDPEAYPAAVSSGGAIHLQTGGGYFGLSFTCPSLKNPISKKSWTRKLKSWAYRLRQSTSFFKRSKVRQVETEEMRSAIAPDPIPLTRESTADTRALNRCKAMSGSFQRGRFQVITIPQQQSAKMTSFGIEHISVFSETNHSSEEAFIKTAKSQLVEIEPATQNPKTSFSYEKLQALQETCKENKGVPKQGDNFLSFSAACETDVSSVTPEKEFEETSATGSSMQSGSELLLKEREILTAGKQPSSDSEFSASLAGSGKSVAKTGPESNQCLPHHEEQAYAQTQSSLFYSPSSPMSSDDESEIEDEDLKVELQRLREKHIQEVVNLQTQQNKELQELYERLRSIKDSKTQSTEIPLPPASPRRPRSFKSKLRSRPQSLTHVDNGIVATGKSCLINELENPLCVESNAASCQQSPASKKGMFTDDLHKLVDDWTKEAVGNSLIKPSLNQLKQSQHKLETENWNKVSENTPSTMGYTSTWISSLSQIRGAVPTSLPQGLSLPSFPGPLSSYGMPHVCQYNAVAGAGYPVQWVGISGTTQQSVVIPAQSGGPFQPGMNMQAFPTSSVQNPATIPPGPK
Sequence of Serine/threonine-protein kinase 38-like (Homo sapiens) (Q9Y2H1 2-464 limits assumed): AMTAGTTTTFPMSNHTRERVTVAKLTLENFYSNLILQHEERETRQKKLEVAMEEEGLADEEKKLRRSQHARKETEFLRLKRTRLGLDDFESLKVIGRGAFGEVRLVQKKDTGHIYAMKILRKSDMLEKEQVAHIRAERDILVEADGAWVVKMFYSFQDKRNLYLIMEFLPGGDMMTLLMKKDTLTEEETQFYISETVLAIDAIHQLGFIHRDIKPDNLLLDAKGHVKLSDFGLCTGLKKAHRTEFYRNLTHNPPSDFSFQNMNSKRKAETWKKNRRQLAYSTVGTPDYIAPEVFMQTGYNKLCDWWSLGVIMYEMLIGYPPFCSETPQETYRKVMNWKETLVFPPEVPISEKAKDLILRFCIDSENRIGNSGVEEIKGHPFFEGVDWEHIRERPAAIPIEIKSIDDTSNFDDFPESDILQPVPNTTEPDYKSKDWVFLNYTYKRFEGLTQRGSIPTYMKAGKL
Sequence of Tyrosine-protein kinase receptor UFO (Homo sapiens) (P30530 whole entry): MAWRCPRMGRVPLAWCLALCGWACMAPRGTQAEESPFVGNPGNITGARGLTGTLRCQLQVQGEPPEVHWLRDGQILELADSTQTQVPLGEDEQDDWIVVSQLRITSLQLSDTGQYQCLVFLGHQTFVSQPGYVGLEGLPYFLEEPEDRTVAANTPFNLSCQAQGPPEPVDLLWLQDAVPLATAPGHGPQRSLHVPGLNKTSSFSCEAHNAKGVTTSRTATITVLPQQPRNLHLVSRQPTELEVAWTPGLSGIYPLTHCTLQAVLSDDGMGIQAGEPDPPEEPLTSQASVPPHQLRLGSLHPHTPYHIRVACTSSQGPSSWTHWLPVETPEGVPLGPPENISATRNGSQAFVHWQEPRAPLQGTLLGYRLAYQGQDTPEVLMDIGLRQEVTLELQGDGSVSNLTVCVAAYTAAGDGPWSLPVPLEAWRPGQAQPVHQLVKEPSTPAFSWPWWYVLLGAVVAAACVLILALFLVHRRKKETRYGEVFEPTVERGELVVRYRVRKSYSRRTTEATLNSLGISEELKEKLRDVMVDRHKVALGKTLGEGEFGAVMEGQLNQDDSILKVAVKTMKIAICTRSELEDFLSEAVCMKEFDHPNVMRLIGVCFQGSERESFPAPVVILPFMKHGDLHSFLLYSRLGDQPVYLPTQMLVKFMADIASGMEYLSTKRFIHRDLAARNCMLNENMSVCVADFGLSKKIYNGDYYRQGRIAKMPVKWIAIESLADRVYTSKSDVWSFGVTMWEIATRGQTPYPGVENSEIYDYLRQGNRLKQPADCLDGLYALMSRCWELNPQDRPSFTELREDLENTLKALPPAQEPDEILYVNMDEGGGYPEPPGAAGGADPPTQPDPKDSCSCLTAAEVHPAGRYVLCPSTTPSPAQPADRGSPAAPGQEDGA
Sequence of Ribosomal protein S6 kinase alpha-1 (Homo sapiens) (Q15418 whole entry, the tested form may be a part): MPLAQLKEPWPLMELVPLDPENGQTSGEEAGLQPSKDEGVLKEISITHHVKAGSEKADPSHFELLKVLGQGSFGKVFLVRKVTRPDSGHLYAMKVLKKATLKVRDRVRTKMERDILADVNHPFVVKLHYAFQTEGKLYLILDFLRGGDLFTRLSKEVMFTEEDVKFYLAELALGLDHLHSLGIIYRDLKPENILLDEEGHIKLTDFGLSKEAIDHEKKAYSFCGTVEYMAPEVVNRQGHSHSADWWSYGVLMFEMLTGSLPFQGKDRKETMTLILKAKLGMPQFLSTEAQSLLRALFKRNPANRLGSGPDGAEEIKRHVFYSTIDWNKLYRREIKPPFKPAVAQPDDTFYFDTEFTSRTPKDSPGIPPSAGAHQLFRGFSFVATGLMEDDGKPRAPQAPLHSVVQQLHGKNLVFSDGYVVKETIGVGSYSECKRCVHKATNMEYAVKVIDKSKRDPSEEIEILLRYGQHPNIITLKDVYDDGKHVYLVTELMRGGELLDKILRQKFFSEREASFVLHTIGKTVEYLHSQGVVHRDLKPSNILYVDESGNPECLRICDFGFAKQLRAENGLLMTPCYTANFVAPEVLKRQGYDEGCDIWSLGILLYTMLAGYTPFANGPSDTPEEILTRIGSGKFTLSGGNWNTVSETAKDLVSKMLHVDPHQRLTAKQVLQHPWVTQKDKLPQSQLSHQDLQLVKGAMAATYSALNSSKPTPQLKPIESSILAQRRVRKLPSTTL
Sequence of Cyclin-dependent kinase 1 (Homo sapiens) (P06493 whole entry, looked up): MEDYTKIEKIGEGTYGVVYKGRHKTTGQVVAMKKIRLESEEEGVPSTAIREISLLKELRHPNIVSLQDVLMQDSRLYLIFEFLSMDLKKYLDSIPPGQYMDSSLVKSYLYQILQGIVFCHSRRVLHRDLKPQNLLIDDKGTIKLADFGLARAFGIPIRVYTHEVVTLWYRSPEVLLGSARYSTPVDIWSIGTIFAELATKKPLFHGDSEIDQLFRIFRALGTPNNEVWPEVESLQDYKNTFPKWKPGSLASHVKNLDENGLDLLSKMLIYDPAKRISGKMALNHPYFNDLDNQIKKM

As to `CCN1CCN(Cc2ccc(NC(=O)c3ccc(C)c(/C=C/c4cnc5[nH]ccc5c4OC)c3)cc2C(F)(F)F)CC1`, the values for the inhibition in experiment [1], in experiment [2] and in experiment [3] were 76%, -6.1% and 76%, respectively.
Take `CCN1CCN(Cc2ccc(NC(=O)c3ccc(C)c(Oc4ccnc5[nH]ccc45)c3)cc2C(F)(F)F)CC1`: the results for the inhibition in [4], in experiment [6] and in [7] were 8.7%, 4.7% and -1.7%, respectively. Moreover, the inhibition entry in experiment [5] is “inactive”.
For `CNc1cc(Oc2cc(C(=O)Nc3cc(N4CCN(C)CC4)cc(C(F)(F)F)c3)ccc2C)ncn1`, the inhibition in experiment [8] was 9%; in experiment [9], 4.2%; in experiment [10], 2.7%.
